# In the supplement of paper PMC10307832:
# Tests used:
# Assay in all cases: relative viability (nuclei count vs DMSO), 5 days (fraction); higher = more cells survive
# ABC-1 = system: ABC-1
# Summary of the method: (§1)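 For relative viability, nuclei counts in treated wells were divided by those in vehicle wells. Lung cancer cell lines had been pin-tool dosed in 1536-well plates the day after seeding and cultured for 5 days, then fixed and stained in one step (final 0.05% Triton X-100, 1% formaldehyde, 1 ug/ml Hoechst) and imaged at 4×. Doses were one drug alone or a fixed anchor-drug dose plus five library-drug doses (not always all listed) in √10 steps, and values are duplicate-plate medians.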
# CAL-12T = system: CAL-12T
# Summary of the method: as §1
# ChaGo-K-1 = system: ChaGo-K-1
# Summary of the method: as §1
# HCC-366 = system: HCC-366
# Summary of the method: as §1
# HCC-78 = system: HCC-78
# Summary of the method: as §1
# LC-2-ad = system: LC-2-ad
# Summary of the method: as §1
# LOU-NH91 = system: LOU-NH91
# Summary of the method: as §1
# LU99A = system: LU99A
# Summary of the method: as §1
# NCI-H1395 = system: NCI-H1395
# Summary of the method: as §1
# NCI-H1651 = system: NCI-H1651
# Summary of the method: as §1
# NCI-H1755 = system: NCI-H1755
# Summary of the method: as §1
# NCI-H1793 = system: NCI-H1793
# Summary of the method: as §1
# NCI-H1944 = system: NCI-H1944
# Summary of the method: as §1
# NCI-H2087 = system: NCI-H2087
# Summary of the method: as §1
# NCI-H2170 = system: NCI-H2170
# Summary of the method: as §1
# NCI-H2228 = system: NCI-H2228
# Summary of the method: as §1
# NCI-H2405 = system: NCI-H2405
# Summary of the method: as §1
# NCI-H3122 = system: NCI-H3122
# Summary of the method: as §1
# NCI-H460 = system: NCI-H460
# Summary of the method: as §1
# PC-3 [JPC-3] = system: PC-3 [JPC-3]
# Summary of the method: as §1
# RERF-LC-KJ = system: RERF-LC-KJ
# Summary of the method: as §1
# UMC-11 = system: UMC-11
# Summary of the method: as §1
compound,measurement,setting,value
COc1nc(C)cnc1NS(=O)(=O)c1cccnc1-c1ccc(-c2nnco2)cc1 [Zibotentan] + COc1cc2c(Oc3ccc(NC(=O)C4(C(=O)Nc5ccc(F)cc5)CC4)cc3F)ccnc2cc1OCCCN1CCOCC1 [Foretinib] (partner 0.25 µM),relative viability,ABC-1; first compound 0.08 µM,0.9
same,relative viability,ABC-1; first compound 0.253 µM,0.936
same,relative viability,ABC-1; first compound 0.8 µM,1.06
same,relative viability,ABC-1; first compound 2.53 µM,1.16
same,relative viability,CAL-12T; first compound 0.08 µM,1.21
same,relative viability,CAL-12T; first compound 0.253 µM,0.923
same,relative viability,CAL-12T; first compound 0.8 µM,1.13
same,relative viability,CAL-12T; first compound 2.53 µM,1.12
same,relative viability,ChaGo-K-1; first compound 0.08 µM,0.941
same,relative viability,ChaGo-K-1; first compound 0.253 µM,0.926
same,relative viability,ChaGo-K-1; first compound 0.8 µM,0.977
same,relative viability,ChaGo-K-1; first compound 2.53 µM,0.841
same,relative viability,HCC-366; first compound 0.08 µM,0.977
same,relative viability,HCC-366; first compound 0.253 µM,0.903
same,relative viability,HCC-366; first compound 0.8 µM,0.964
same,relative viability,HCC-366; first compound 2.53 µM,0.976
same,relative viability,HCC-78; first compound 0.08 µM,0.535
same,relative viability,HCC-78; first compound 0.253 µM,0.484
same,relative viability,HCC-78; first compound 0.8 µM,0.588
same,relative viability,HCC-78; first compound 2.53 µM,0.518
same,relative viability,LC-2-ad; first compound 0.08 µM,1.02
same,relative viability,LC-2-ad; first compound 0.8 µM,0.955
same,relative viability,LC-2-ad; first compound 2.53 µM,0.954
same,relative viability,LOU-NH91; first compound 0.08 µM,0.903
same,relative viability,LOU-NH91; first compound 0.253 µM,0.841
same,relative viability,LOU-NH91; first compound 0.8 µM,0.969
same,relative viability,LOU-NH91; first compound 2.53 µM,0.888
same,relative viability,LU99A; first compound 0.08 µM,0.953
same,relative viability,LU99A; first compound 0.253 µM,0.8
same,relative viability,LU99A; first compound 0.8 µM,0.888
same,relative viability,LU99A; first compound 2.53 µM,0.918
same,relative viability,NCI-H1395; first compound 0.08 µM,1.02
same,relative viability,NCI-H1395; first compound 0.253 µM,1.07
same,relative viability,NCI-H1395; first compound 0.8 µM,1.04
same,relative viability,NCI-H1395; first compound 2.53 µM,0.941
same,relative viability,NCI-H1651; first compound 0.08 µM,0.815
same,relative viability,NCI-H1651; first compound 0.253 µM,0.569
same,relative viability,NCI-H1651; first compound 0.8 µM,0.488
same,relative viability,NCI-H1651; first compound 2.53 µM,0.99
same,relative viability,NCI-H1755; first compound 0.08 µM,0.943
same,relative viability,NCI-H1755; first compound 0.253 µM,0.897
same,relative viability,NCI-H1755; first compound 0.8 µM,0.897
same,relative viability,NCI-H1755; first compound 2.53 µM,0.929
same,relative viability,NCI-H1793; first compound 0.08 µM,0.993
same,relative viability,NCI-H1793; first compound 0.253 µM,0.721
same,relative viability,NCI-H1793; first compound 0.8 µM,0.546
same,relative viability,NCI-H1793; first compound 2.53 µM,0.808
same,relative viability,NCI-H1944; first compound 0.08 µM,1.02
same,relative viability,NCI-H1944; first compound 0.253 µM,0.806
same,relative viability,NCI-H1944; first compound 0.8 µM,0.898
same,relative viability,NCI-H1944; first compound 2.53 µM,0.908
same,relative viability,NCI-H2087; first compound 0.08 µM,1.22
same,relative viability,NCI-H2087; first compound 0.253 µM,1.04
same,relative viability,NCI-H2087; first compound 0.8 µM,1.16
same,relative viability,NCI-H2087; first compound 2.53 µM,1.04
same,relative viability,NCI-H2170; first compound 0.08 µM,1.05
same,relative viability,NCI-H2170; first compound 0.253 µM,1.07
same,relative viability,NCI-H2170; first compound 0.8 µM,1.03
same,relative viability,NCI-H2170; first compound 2.53 µM,0.969
same,relative viability,NCI-H2228; first compound 0.08 µM,0.714
same,relative viability,NCI-H2228; first compound 0.253 µM,0.819
same,relative viability,NCI-H2228; first compound 0.8 µM,0.889
same,relative viability,NCI-H2228; first compound 2.53 µM,0.801
same,relative viability,NCI-H2405; first compound 0.08 µM,1.1
same,relative viability,NCI-H2405; first compound 0.253 µM,1.02
same,relative viability,NCI-H2405; first compound 0.8 µM,1.04
same,relative viability,NCI-H2405; first compound 2.53 µM,1.05
same,relative viability,NCI-H3122; first compound 0.08 µM,1.02
same,relative viability,NCI-H3122; first compound 0.253 µM,0.975
same,relative viability,NCI-H3122; first compound 0.8 µM,0.983
same,relative viability,NCI-H3122; first compound 2.53 µM,1.02
same,relative viability,NCI-H460; first compound 0.08 µM,1.09
same,relative viability,NCI-H460; first compound 0.253 µM,0.827
same,relative viability,NCI-H460; first compound 0.8 µM,0.986
same,relative viability,NCI-H460; first compound 2.53 µM,1.05
same,relative viability,PC-3 [JPC-3]; first compound 0.08 µM,1.05
same,relative viability,PC-3 [JPC-3]; first compound 0.253 µM,1.05
same,relative viability,PC-3 [JPC-3]; first compound 0.8 µM,1.03
same,relative viability,PC-3 [JPC-3]; first compound 2.53 µM,0.973
same,relative viability,RERF-LC-KJ; first compound 0.08 µM,0.836
same,relative viability,RERF-LC-KJ; first compound 0.253 µM,0.885
same,relative viability,RERF-LC-KJ; first compound 0.8 µM,0.809
same,relative viability,RERF-LC-KJ; first compound 2.53 µM,0.849
same,relative viability,UMC-11; first compound 0.08 µM,1.05
same,relative viability,UMC-11; first compound 0.253 µM,0.92
same,relative viability,UMC-11; first compound 0.8 µM,0.991
same,relative viability,UMC-11; first compound 2.53 µM,1.04
